Where “and” joins values, the source holds several entries; their conditions need not be identical. Identical values can stand only once. Like-named read-outs stand apart in the source and are kept apart here. Marks after values point to notes of the source that are not given here.
Legend:
[1] = Ferric-reducing antioxidant power (FRAP) assay; conditions: Trolox equivalents
[2] = ABTS radical cation scavenging assay; conditions: for ABTS•+-Scavenging Activity TEAC: Trolox equivalents; for time to reach the activity level of Trolox in ABTS radical scavenging: compound at 20 μM (IC50 of Trolox)
Porcine liver CES = assay: CES inhibition, spectrophotometric, 4-NPA substrate; type: biochemical
Description: (§1) Human erythrocyte AChE and equine serum BChE were purchased from Milamed (Perm, Russia). Porcine liver CES, substrates, and reference compounds were from Sigma-Aldrich (St. Louis, MO, USA). The activity of enzymes was measured spectrophotometrically, as described in detail in [72] using ATCh iodide, BTCh iodide, and 4-NPA as substrates for AChE, BChE, and CES, respectively. Experimental conditions: K,Na—phosphate buffer (100 mM), 25 °C, pH 7.5 for AChE and BChE and pH 8.0 for CES assay. Measurements were carried out on a FLUOStar Optima microplate reader (BMG Labtech, Ortenberg, Germany).
Test compounds were dissolved in DMSO; the final concentration of solvent in the incubation mixture was 2% (v/v). […]

equine serum BChE = equine serum BChE (Equus caballus, UniProt P81908); assay: biochemical; type: biochemical
Description: as §1
(§2) Test compounds were dissolved in DMSO; the final concentration of solvent in the incubation mixture was 2% (v/v).

Human erythrocyte AChE = Human erythrocyte AChE (Homo sapiens, UniProt P22303); assay: biochemical; type: biochemical
Description: as §1, §2

[3] = target: peripheral anionic site of Electrophorus electricus AChE (EeAChE) (Electrophorus electricus, UniProt O42275); type: binding;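 further: compounds tested at 20 µM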
Aβ42 = Aβ42 (Homo sapiens, UniProt P05067); assay: Inhibition of Aβ42 self-aggregation, thioflavin T fluorescence; type: biochemical; conditions: for inhibition at 100 µM: read-out: Inhibition of Aβ42 Self-Aggregation
Sequence of Aβ42 (P05067 672-713): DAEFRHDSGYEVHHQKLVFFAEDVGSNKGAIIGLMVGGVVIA

Sequence of Human erythrocyte AChE (P22303 other isoform, or with tags, fused parts or gaps): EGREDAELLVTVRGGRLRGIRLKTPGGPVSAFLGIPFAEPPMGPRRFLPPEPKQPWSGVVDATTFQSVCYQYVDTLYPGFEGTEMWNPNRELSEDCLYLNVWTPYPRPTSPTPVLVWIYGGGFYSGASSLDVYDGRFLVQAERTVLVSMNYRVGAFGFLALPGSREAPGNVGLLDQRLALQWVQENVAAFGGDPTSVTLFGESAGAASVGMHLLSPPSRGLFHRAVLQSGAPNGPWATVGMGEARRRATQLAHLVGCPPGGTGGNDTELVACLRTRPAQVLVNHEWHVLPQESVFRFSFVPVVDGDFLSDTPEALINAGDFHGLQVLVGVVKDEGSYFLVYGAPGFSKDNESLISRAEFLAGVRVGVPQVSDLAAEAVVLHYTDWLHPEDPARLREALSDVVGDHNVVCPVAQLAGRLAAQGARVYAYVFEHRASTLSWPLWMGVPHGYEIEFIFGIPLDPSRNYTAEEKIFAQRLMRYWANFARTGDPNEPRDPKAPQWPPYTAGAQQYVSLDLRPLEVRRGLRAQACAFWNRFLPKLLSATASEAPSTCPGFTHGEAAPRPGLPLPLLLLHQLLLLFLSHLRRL
Sequence of peripheral anionic site of Electrophorus electricus AChE (EeAChE) (O42275 24-633): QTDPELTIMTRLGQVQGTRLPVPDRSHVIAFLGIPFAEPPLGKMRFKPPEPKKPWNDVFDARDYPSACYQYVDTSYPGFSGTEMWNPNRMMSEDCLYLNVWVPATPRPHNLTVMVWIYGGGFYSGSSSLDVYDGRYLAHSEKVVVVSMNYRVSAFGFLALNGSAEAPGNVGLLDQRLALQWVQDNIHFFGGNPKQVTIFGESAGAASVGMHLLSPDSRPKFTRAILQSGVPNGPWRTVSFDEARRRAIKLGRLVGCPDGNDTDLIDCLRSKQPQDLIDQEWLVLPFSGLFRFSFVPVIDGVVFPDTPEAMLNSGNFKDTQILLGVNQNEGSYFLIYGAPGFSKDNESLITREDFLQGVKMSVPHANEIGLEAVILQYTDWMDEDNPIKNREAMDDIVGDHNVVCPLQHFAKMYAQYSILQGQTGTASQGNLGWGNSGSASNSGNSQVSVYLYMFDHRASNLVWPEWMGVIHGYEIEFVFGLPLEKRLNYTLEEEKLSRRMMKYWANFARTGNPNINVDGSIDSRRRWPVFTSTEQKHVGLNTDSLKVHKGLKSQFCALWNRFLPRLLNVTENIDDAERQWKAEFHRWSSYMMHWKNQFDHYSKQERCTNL
Sequence of equine serum BChE (P81908 whole entry): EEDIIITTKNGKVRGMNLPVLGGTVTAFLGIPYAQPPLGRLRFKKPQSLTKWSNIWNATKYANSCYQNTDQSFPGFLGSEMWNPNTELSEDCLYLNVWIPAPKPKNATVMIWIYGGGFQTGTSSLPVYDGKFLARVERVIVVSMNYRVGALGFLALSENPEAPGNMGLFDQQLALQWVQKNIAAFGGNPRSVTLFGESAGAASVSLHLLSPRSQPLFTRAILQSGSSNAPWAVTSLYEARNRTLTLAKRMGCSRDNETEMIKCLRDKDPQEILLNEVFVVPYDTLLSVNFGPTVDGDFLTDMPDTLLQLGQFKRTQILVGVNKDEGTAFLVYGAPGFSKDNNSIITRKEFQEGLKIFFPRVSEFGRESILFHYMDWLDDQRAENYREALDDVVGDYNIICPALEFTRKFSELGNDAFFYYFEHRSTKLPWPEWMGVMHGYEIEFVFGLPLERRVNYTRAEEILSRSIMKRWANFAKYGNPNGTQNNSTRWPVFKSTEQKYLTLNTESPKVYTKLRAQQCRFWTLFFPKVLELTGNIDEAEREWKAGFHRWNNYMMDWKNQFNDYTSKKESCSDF

Compound | Ferric-Reducing Antioxidant Power TE [1] | IC50 [2] | ABTS•+-Scavenging Activity TEAC [2] | CES % inhibition at 20 μM (Porcine liver CES) | IC50 (equine serum BChE) [nM] | IC50 (Human erythrocyte AChE) [nM] | Propidium Displacement [3] | inhibition at 100 µM (Aβ42; Aβ42 50 µM, compound 100 µM) [%] | time to reach the activity level of Trolox in ABTS radical scavenging [2] | inhibition at 100 µM (Aβ42) [%] | Inhibition of Aβ42 Self-Aggregation (Aβ42; Aβ42 50 µM, compound 100 µM)
CC(C)(C)c1cc(C=NCCCCNc2c3c(nc4ccccc24)CCC3)cc(C(C)(C)C)c1O [13b, 2,6-Di-tert-butyl-4-{[4-(2,3-dihydro-1H-cyclopenta[b]quinolin-9-ylamino)-butylimino]-methyl}-phenol] | 0.60 ± 0.02 | 25400 ± 1600 nM | 0.78 ± 0.04 | 32.7 ± 1.9% | 351 ± 1 | 1300 ± 70 | 20.0 ± 1.6 ***^,§ % |  |  |  | 
CC(C)(C)c1cc(C=NCCCCCCNc2c3c(nc4ccccc24)CCC3)cc(C(C)(C)C)c1O [13c, 2,6-Di-tert-butyl-4-{[6-(2,3-dihydro-1H-cyclopenta[b]quinolin-9-ylamino)-hexylimino]-methyl}-phenol] | 0.59 ± 0.01 | 19400 ± 900 nM | 0.98 ± 0.04 | 31.3 ± 2.1% | 172 ± 17 | 210 ± 10 | 16.5 ± 1.3% |  |  |  | 
CC(C)(C)c1cc(C=NCCCCCCCCNc2c3c(nc4ccccc24)CCC3)cc(C(C)(C)C)c1O [13d, 2,6-Di-tert-butyl-4-{[8-(2,3-dihydro-1H-cyclopenta[b]quinolin-9-ylamino)-octylimino]-methyl}-phenol] | 0.71 ± 0.03 | 22700 ± 1200 nM | 0.85 ± 0.03 | 26.3 ± 1.7% | 41.7 ± 0.3 | 107 ± 9 | 15.1 ± 0.9% | 49.4 ± 4.3 |  |  | 
CC(C)(C)c1cc(C=NCCCCNc2c3c(nc4ccccc24)CCCC3)cc(C(C)(C)C)c1O [14b, 2,6-Di-tert-butyl-4-{[4-(1,2,3,4-tetrahydro-acridin-9-ylamino)-butylimino]-methyl}-phenol] |  | 19700 ± 900 nM | 1.0 and 1.00 ± 0.05 | 26.6 ± 2.2% | 385 ± 31 | 424 ± 22 | 17.6 ± 1.4 *^,§ % |  |  |  | 
CC(C)(C)c1cc(C=NCCCCCCNc2c3c(nc4ccccc24)CCCC3)cc(C(C)(C)C)c1O [14c, 2,6-Di-tert-butyl-4-{[6-(1,2,3,4-tetrahydro-acridin-9-ylamino)-hexylimino]-methyl}-phenol] | 0.71 ± 0.02 | 18600 ± 900 nM | 1.10 ± 0.05 | 25.1 ± 1.9% | 55 ± 5 | 71.2 ± 1.2 | 19.7 ± 1.5 **^,§ % | 62.4 ± 4.9 |  |  | 
CC(C)(C)c1cc(C=NCCCCNc2c3c(nc4ccccc24)CCCCC3)cc(C(C)(C)C)c1O [15b, 2,6-Di-tert-butyl-4-{[4-(7,8,9,10-tetrahydro-6H-cyclohepta[b]quinolin-11-ylamino)-butylimino]-methyl}-phenol] | 0.46 ± 0.01 | 22500 ± 1400 nM | 0.89 ± 0.04 | 26.3 ± 0.4% | 131 ± 4 | 524 ± 20 | 18.4 ± 1.4 **^,§ % |  |  |  | 
CC(C)(C)c1cc(CNCCCCNc2c3c(nc4ccccc24)CCC3)cc(C(C)(C)C)c1O [16b, 2,6-Di-tert-butyl-4-{[4-(2,3-dihydro-1H-cyclopenta[b]quinolin-9-ylamino)-butylamino]-methyl}-phenol] | 0.44 ± 0.02 | 23600 ± 1300 nM | 0.90 ± 0.04 | 17.2 ± 3.3% | 177 ± 17 | 912 ± 16 | 17.5 ± 1.5 *^,§ % |  |  |  | 
CC(C)(C)c1cc(CNCCCCCCNc2c3c(nc4ccccc24)CCC3)cc(C(C)(C)C)c1O [16c, 2,6-Di-tert-butyl-4-{[6-(2,3-dihydro-1H-cyclopenta[b]quinolin-9-ylamino)-hexylamino]-methyl}-phenol] | 0.51 ± 0.02 | 13400 ± 700 nM |  | 18.7 ± 0.7% | 48.8 ± 0.5 | 205 ± 12 | 15.8 ± 1.4% |  | less than 1 min |  | 
CC(C)(C)c1cc(CNCCCCCCCCNc2c3c(nc4ccccc24)CCC3)cc(C(C)(C)C)c1O [16d, 2,6-Di-tert-butyl-4-{[8-(2,3-dihydro-1H-cyclopenta[b]quinolin-9-ylamino)-octylamino]-methyl}-phenol] | 0.61 ± 0.01 | 21300 ± 1200 nM | 1.00 ± 0.03 | 17.2 ± 0.2% | 17 ± 1.6 | 94 ± 6 | 13.9 ± 1.1% | 54.6 ± 3.9 |  |  | 
CC(C)(C)c1cc(CNCCNc2c3c(nc4ccccc24)CCCC3)cc(C(C)(C)C)c1O [17a, 2,6-Di-tert-butyl-4-{[2-(1,2,3,4-tetrahydro-acridin-9-ylamino)-ethylamino]-methyl}-phenol] | 0.52 ± 0.02 | 16700 ± 800 nM | 1.20 ± 0.05 | 18.4 ± 1.1% | 464 ± 41 | 2880 ± 190 | 13.4 ± 1.1% |  |  |  | 
CC(C)(C)c1cc(CNCCCCNc2c3c(nc4ccccc24)CCCC3)cc(C(C)(C)C)c1O [17b, 2,6-Di-tert-butyl-4-{[4-(1,2,3,4-tetrahydro-acridin-9-ylamino)-butylamino]-methyl}-phenol] |  | 14300 ± 600 nM |  | 15.8 ± 1.4% | 111 ± 9 | 279 ± 22 | 15.4 ± 1.3% |  | less than 1 min |  | 
CC(C)(C)c1cc(CNCCCCCCNc2c3c(nc4ccccc24)CCCC3)cc(C(C)(C)C)c1O [17c, 2,6-Di-tert-butyl-4-{[6-(1,2,3,4-tetrahydro-acridin-9-ylamino)-hexylamino]-methyl}-phenol] | 0.44 ± 0.02 | 15700 ± 600 nM | 1.32 ± 0.08 | 18.5 ± 1.6% | 36.1 ± 23 | 70.2 ± 1.1 | 16.1 ± 1.1% | 64.1 ± 5.7 | less than 1 min |  | 
CC(C)(C)c1cc(CNCCCCNc2c3c(nc4ccccc24)CCCCC3)cc(C(C)(C)C)c1O [18b, 2,6-Di-tert-butyl-4-{[4-(7,8,9,10-tetrahydro-6H-cyclohepta[b]quinolin-11-ylamino)-butylamino]-methyl}-phenol] | 0.38 ± 0.01 | 14600 ± 500 nM |  | 21.4 ± 1.8% | 67.8 ± 6.1 | 436 ± 16 | 15.7 ± 1.2% |  | less than 1 min |  | 
O=c1c(O)c(-c2cc(O)c(O)c(O)c2)oc2cc(O)cc(O)c12 [Myricetin, reference compound] |  |  |  |  |  |  |  |  |  | 73.2 ± 5.8 | 
Nc1c2c(nc3ccccc13)CCCC2 [Tacrine, reference compound] |  |  |  |  |  |  |  |  |  |  | minimal inhibition
Cc1c(C)c2c(c(C)c1O)CCC(C)(C(=O)O)O2 (centres unmarked) [Trolox, 6-hydroxy-2,5,7,8-tetramethylchroman-2-carboxylic acid, reference compound] | 1.0 | 20000 nM and 20100 nM | 1.0 |  |  |  |  |  |  |  | 
Propidium iodide [reference compound] |  |  |  |  |  |  |  |  |  |  | 89.3 ± 7.1 ^b %
bis-4-nitrophenyl phosphate [BNPP, reference compound] |  |  |  | 99.1 ± 0.9% ^b |  |  |  |  |  |  | 
